Data from PMC8621857, “Structural Insights into the Azole Resistance of the Candida albicans Darlington Strain Using Saccharomyces cerevisiae Lanosterol 14α-Demethylase as a Surrogate” (Journal of Fungi, 2021).
pKd: −log10 of the molar value.

What was measured:
[1] = tested on: C. albicans strain SC5314; assay: Agarose disk diffusion assay, control strain SC5314; format: cell-based, Candida albicans; conditions: for effect of Mdr1 inhibitor MCC1189 on azole susceptibility: SC5314, MCC1189 at 6 µM in the assay medium; for effect of Cdr1p inhibitor RC21v3 on azole susceptibility: SC5314, RC21v3 at 6 µM in the assay medium
Procedure: (§1) Agarose diffusion assays were carried out as described previously using the Darlington strain of C. albicans (Pfizer Ltd., Sandwich, UK) and the control C. albicans database strain SC5314, which is not resistant to azoles. The Cdr1p-specific inhibitor RC21v3 and the CaMdr1p-specific inhibitor MCC1189 (MicroCombiChem, Wiesbaden, Germany), included in the assay medium at 6 µM, were used to investigate the contribution of efflux pumps to azole resistance in the Darlington strain [49, 50, 51].

[2] = tested on: S. cerevisiae strain AD3Δ ScErg11 Y140H I471T expressing ScLDM6×His Y140H I471T; assay: Broth microdilution drug susceptibility assay (MIC80), strain AD3Δ ScErg11 Y140H I471T; format: cell-based, Saccharomyces cerevisiae; conditions: for MIC: Saccharomyces cerevisiae, strain Y140H + I471T, 48 h, 30 °C, pH 6.8, mean (± SEM), n = 3; for resistance conferred, relative expression taken into account: ScLDM6×His Y140H I471T (0.41 of wild-type) vs AD3Δ; for MIC80/Relative Amount of ScLDM6×His / fold-resistance based on the relative amount of recombinant enzyme compared with strain AD3Δ: strain Y140H+I471T, relative expression 0.41
Procedure: (§2) The native ScERG11 gene in yeast cells containing mutant ScERG11-6×His constructs in the PDR5 locus was disrupted by homologous recombination with a cassette encoding the His1 selection marker and sequences homologous with the regions bordering the endogenous ScERG11 ORF to create strains AD3Δ ScErg11 Y140H, AD3Δ ScErg11 I471T and AD3Δ ScErg11Y140H I471T [43]. Transformants were selected on SD-His agar plates incubated at 30 °C for 48–72 h. Genomic DNA was extracted, and DNA sequencing as above was used to confirm deletion of the native ERG11. Strain AD3Δ ScErg11 (denoted as AD3Δ), which overexpresses wild-type ScLDM6×His from the PDR5 locus and has the native ScERG11 gene disrupted, was used as a control strain [43].
(§3) Azole susceptibility was measured as the mean drug concentration required to inhibit 80% of yeast growth (MIC80) compared to a non-drug control, using a standard broth microdilution assay. Serial dilutions of short- (FLC and VCZ), medium- (VT-1161), and long-tailed (ITC and PCZ) azole drugs, and the control drugs micafungin (MCF) and amphotericin B (AMB), were prepared in a 96-well microtiter plate in complete synthetic media lacking uracil, buffered to pH 6.8 [34]. Control and test cells were seeded at an optical density of 600 nm (OD600) of 0.005 (~1.5 × 10^4 colony forming units). After incubation for 48 h at 30 °C with constant agitation (200 rpm), the OD600 nm of each well was measured using a Synergy 2 multi-mode plate reader (BioTek Instruments, Winooski, VT, USA). The experiment was repeated three times (a total of nine measurements for the response of each strain to each drug). GraphPad Prism 5.0 software was used for statistical analysis, using a one-way analysis of variance with a Bonferroni post-hoc test. The statistical significance of comparisons was accepted when p < 0.05.

[3] = tested on: S. cerevisiae strain AD3Δ ScErg11 Y140H expressing ScLDM6×His Y140H; assay: Broth microdilution drug susceptibility assay (MIC80), strain AD3Δ ScErg11 Y140H; format: cell-based, Saccharomyces cerevisiae; conditions: for MIC80: Saccharomyces cerevisiae, 48 h, 30 °C, pH 6.8, mean (± SEM), n = 3; for MIC80 / MIC80/Relative Amount of ScLDM6×His / fold-resistance based on the relative amount of recombinant enzyme compared with strain AD3Δ: strain Y140H; for MIC80/Relative Amount of ScLDM6×His / fold-resistance based on the relative amount of recombinant enzyme compared with strain AD3Δ: relative expression 0.74
Procedure: as §2, §3

[4] = tested on: S. cerevisiae strain AD3Δ ScErg11 I471T expressing ScLDM6×His I471T; assay: Broth microdilution drug susceptibility assay (MIC80), strain AD3Δ ScErg11 I471T; format: cell-based, Saccharomyces cerevisiae; conditions: for MIC80: Saccharomyces cerevisiae, 48 h, 30 °C, pH 6.8, mean (± SEM), n = 3; for MIC80 / MIC80/Relative Amount of ScLDM6×His / fold-resistance based on the relative amount of recombinant enzyme compared with strain AD3Δ: strain I471T; for increased susceptibility compared with AD3Δ: strain AD3Δ ScErg11 I471T, not corrected for expression; for MIC80/Relative Amount of ScLDM6×His / fold-resistance based on the relative amount of recombinant enzyme compared with strain AD3Δ: relative expression 0.51
Procedure: as §2, §3

[5] = tested on: S. cerevisiae strain AD2Δ (native wild-type ScLDM); assay: Broth microdilution drug susceptibility assay (MIC80), host strain AD2Δ; format: cell-based; conditions: Saccharomyces cerevisiae; strain AD2Δ; 48 h, 30 °C, pH 6.8; mean (± SEM), n = 3; read-out: MIC80
Procedure: Yeast strains used in this study (Supplementary Table S1) were prepared using the AD2Δ strain of S. cerevisiae as a host, using an established protocol. AD2Δ is hypersensitive to xenobiotics due to the deletion of seven major ABC transporters, including those responsible for the efflux of azole drugs. It is also deleted of the PDR3 transcriptional regulator, but contains the gain-of-function Pdr1-3 transcriptional regulator mutation that leads to constitutive overexpression from the PDR5 locus.
as §3

[6] = tested on: C. albicans Darlington strain; assay: Agarose disk diffusion assay, Darlington strain; format: cell-based, Candida albicans; conditions: for effect of Mdr1 inhibitor MCC1189 on azole susceptibility: MCC1189 at 6 µM in the assay medium; for effect of Cdr1p inhibitor RC21v3 on azole susceptibility: RC21v3 at 6 µM in the assay medium; for agarose diffusion susceptibility: no efflux pump inhibitor
Procedure: as §1

[7] = tested on: S. cerevisiae strain AD3Δ ScErg11 (AD3Δ) overexpressing wild-type ScLDM6×His; assay: Broth microdilution drug susceptibility assay (MIC80), strain AD3Δ ScErg11; format: cell-based, Saccharomyces cerevisiae; conditions: strain AD3Δ; for MIC80: Saccharomyces cerevisiae, 48 h, 30 °C, pH 6.8, mean (± SEM), n = 3, read-out: MIC80; for MIC80/Relative Amount of ScLDM6×His: relative expression 1
Procedure: as §2, §3

[8] = target: wild-type and Y140F/H mutants of ScLDM6×His; parameters: method as in earlier work; conditions: no significant differences, ref 5 (supplement; Sagatova et al. 2016); cited from earlier work
[9] = tested on: Phakopspora pachyrhizi SDM Y131F I475T isolates; parameters: method as in PMID 23589453; conditions: isolates from soybean plants in Brazil; cited from earlier work

SMILES | effect of Mdr1 inhibitor MCC1189 on azole susceptibility [1] | effect of Cdr1p inhibitor RC21v3 on azole susceptibility [1] | MIC [2] | resistance conferred, relative expression taken into account [2] | MIC80/Relative Amount of ScLDM6×His [2] | fold-resistance based on the relative amount of recombinant enzyme compared with strain AD3Δ [2] | MIC80 [3] | MIC80/Relative Amount of ScLDM6×His [3] | fold-resistance based on the relative amount of recombinant enzyme compared with strain AD3Δ [3] | MIC80 [4] | increased susceptibility compared with AD3Δ [4] | MIC80/Relative Amount of ScLDM6×His [4] | fold-resistance based on the relative amount of recombinant enzyme compared with strain AD3Δ [4] | MIC80 [5] | effect of Mdr1 inhibitor MCC1189 on azole susceptibility [6] | effect of Cdr1p inhibitor RC21v3 on azole susceptibility [6] | agarose diffusion susceptibility [6] | MIC80 [7] | MIC80/Relative Amount of ScLDM6×His [7] | resistance conferred by the double mutation Y131F I475T [9] | further results
CC[C@@H]([C@H](C)O)n1ncn(-c2ccc(N3CCN(c4ccc(OC[C@@H]5CO[C@@](Cn6cncn6)(c6ccc(F)cc6F)C5)cc4)CC3)cc2)c1=O [PCZ, Posaconazole] | no effect on susceptibility | increased susceptibility | 0.265 µM | 1.5 fold | 646 nM | 1.5 × | 0.33 µM | 445 nM | 1.1 × | 0.27 µM | 1.6 fold | 527 nM | 1.3 × | 0.16 µM | no effect on susceptibility | increased susceptibility | resistant | 0.423 µM | 423 nM |  | susceptibility compared with AD3Δ cells ([3]; cells overexpressing ScLDM6×His Y140H, not corrected for expression): slightly increased susceptibility; pKd [8]: ~6.30
O[C@@](Cn1cnnn1)(c1ccc(F)cc1F)C(F)(F)c1ccc(-c2ccc(OCC(F)(F)F)cc2)cn1 [VT-1161] | did not alter the susceptibility | did not alter the susceptibility | 0.0676 µM | 2.2 fold | 165 nM | 2.2 × | 0.116 µM | 157 nM | 2.1 × | 0.0346 µM | 2.2 fold | 67.9 nM | 0.90 × | 0.0288 µM | did not alter the susceptibility | did not alter the susceptibility | resistant | 0.0754 µM | 75.4 nM |  | agarose diffusion susceptibility ([1]; SC5314, no efflux pump inhibitor): susceptible; resistance conferred, relative amount of recombinant ScLDM6×His taken into account ([3]; ScLDM6×His Y140H vs AD3Δ): 2.1 fold; resistance of cells containing the Y140H mutation in ScLDM6×His ([3]; discussion, significant but modest): 2 fold; MIC80 higher than strain AD3Δ ScErg11 ([3]; strain AD3Δ ScErg11 Y140H vs AD3Δ, not corrected for expression, p < 0.001): 1.5 fold
CC(C1CC1)C(O)(Cn1cncn1)c1ccc(Cl)cc1 (centres unmarked) [cyproconazole] |  |  |  |  |  |  |  |  |  |  |  |  |  |  |  |  |  |  |  | ~ 100 fold | 
CC1(C)CCC(Cc2ccc(Cl)cc2)C1(O)Cn1cncn1 (centres unmarked) [metconazole] |  |  |  |  |  |  |  |  |  |  |  |  |  |  |  |  |  |  |  | ~ 100 fold | 
CC(C)(C)C(O)(CCc1ccc(Cl)cc1)Cn1cncn1 (centres unmarked) [tebuconazole] |  |  |  |  |  |  |  |  |  |  |  |  |  |  |  |  |  |  |  | ~ 100 fold | 
